Data from patent US5451600A, “Substituted tetrahydrobenzopyrrolylfuranoic acid derivatives as phospholipase A2 inhibitors” (Hoffmann-La Roche Inc., priority 1994, dated 1995).
pIC50: −log10 of the molar value. Read-outs that look alike come from different tables or passages of the source.

Columns and labels:
[1] = target: T1, PLA2 activity in human synovial fluid (HSF) (Homo sapiens, UniProt P14555); assay: Phospholipase A2 (PLA2) enzymatic assay - % Inhibition of HSF-PLA2; assay type: biochemical; conditions: for pIC50: human synovial fluid PLA2, 30 min at 37° C., pH 7.3; for inhibition at 5 µM: read-out: % Inhib. of HSF-PLA2 at 5 μM
T1 construct: Synovial fluid was obtained from patients with rheumatoid arthritis; from tissue; host or cells: cell-depleted synovial fluid of patients with rheumatoid arthritis
T1 sequence (P14555 21-144): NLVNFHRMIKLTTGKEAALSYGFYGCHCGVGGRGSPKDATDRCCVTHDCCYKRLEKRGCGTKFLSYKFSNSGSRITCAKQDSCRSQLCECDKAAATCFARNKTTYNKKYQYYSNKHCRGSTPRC
Description: 1, Phospholipase A2 (PLA2) enzymatic assay - % Inhibition of HSF-PLA2
PLA2 assay procedure described by Hope et al., Inflammation 14:543-559 (1.990) was utilized to measure the inhibitory activity of the invention (inhibitor) against PLA2 activity in human synovial fluid (HSF). Synovial fluid was obtained from patients with rheumatoid arthritis. The assay procedure measured the release of [1-^14 C]oleic acid from the sn-2 position of phospholipids in autoclaved Escherichia coli previously grown in media containing [1-^14 C]oleic acid. The standard assay reaction conditions included 1×10^9 Escherichia coil (10,000 dpm ^14 C), 0.15% (v/v) cell-depleted HSF, (which was equivalent to 66 μg protein/mL) 2 mM CaCl2, 150 mM NaCl, 50 mM sodium (N-[2-hydroxyethyl] piperazine-N'-[2-ethanesulfonate]) (HEPES) buffer (pH 7.3), 1% dimethyl sulfoxide (DMSO) and various concentrations of inhibitor in a total volume of 0.5 ml. Inhibitors were dissolved in DMSO and added. The reaction was initiated by addition of HSF, incubated for 30 min at 37° C. and then stopped by addition of 2.5 ml of chloroform/methanol (1:1.5, v/v). The total lipids were extracted by the method of Bligh, E. G., and Dyer, W. J, Can. J. Biochem. Physiol. 37:911-917 (1959) by the further addition of 0.5 mL of chloroform and 1 mL of water with mixing. The lipid extract was redissolved in chloroform/methanol (9:1, v/v) containing 10 ug of carrier oleic acid. The oleic acid was separated from phospholipids by thin layer chromatography using gel-impregnated glass fiber sheets (ITLC type SG sheets). The sheets were preactivated by heating at 110° C. for 30 min. The lipid extract was applied to the sheets and chromatographed for 6 minutes, using hexane/acetic acid (100:1, v/v). The positions on the sheet containing oleic acid and phospholipids were visualized by exposure to iodine vapor and located by comparison to standards. The oleic acid and phospholipid zones were cut from the sheets, shaken individually with 2 ml of ethanol/water (80:20, v/v) and 15 ml of Aquasol, then counted for [^14 C] radioactivity (dpm). PLA2 activity, expressed as percent hydrolysis, was calculated from the formula: [formula] and was corrected for nonenzymatic hydrolysis of the substrate. Percent inhibition due to the presence of drug was calculated from the formula: [formula]
When various concentrations of a Compound of Formula I were tested, the percent inhibition at each concentration was plotted as log concentration (abscissa) versus percent inhibition (ordinate) and the IC50 was determined from this plot.

cellular PLA2 = assay: Inhibition of Cellular Phospholipase A2 (A23187-stimulated macrophages); assay type: cell-based; conditions: rat peritoneal macrophages, A-23187 stimulated
Method: II. Inhibition of Cellular Phospholipase A2. - % Inhibition of Cellular PLA2
Resident macrophages were obtained from rats by peritoneal lavage with phosphate buffered saline minus Ca2^++ and Mg2^++ (PBS). Cells were washed 3 times with PBS and resuspended in Dulbecco's Modified Eagle's Medium (GiBco) containing L-glutamine low D-glucose (1000 mg/L), and sodium pyruvate (110 mg/L), supplemented with 10% fetal calf serum. Cells were counted on a Coulter ZBI cell counter and then resuspended to a concentration of 6×10^6 cells/1.5 ml. The cell suspension (1.5 ml culture dishes (35 mm) and the cells were allowed to adhere to the dishes for 90 minutes at 37° C. Dishes were washed 3 times with PBS to remove non-adherent cells. [^14 C]arachidonic acid ([^14 C]-AA, approximately […], were added to the cells (1 uCi/dish) and allowed to incorporate for 120 minutes. Medium containing unincorporated [^14 C]-AA was removed and the cell layer was again washed 3 times with PBS. Inhibitors were dissolved in dimethylsulfoxide (DMSO) and added directly to the macrophages in Hank's Balanced Salt Solution (GiBco) phosphate-buffered, pH 7.4) to obtain the desired final concentration. Cells were incubated with drug or DMSO for 30 minutes at 37° C. and were then stimulated with calcium-ionophore A-23187 (0.75 uM) for 20 minutes. The extracellular medium was removed and the [^14 C] radioactivity released into this medium from AA metabolism was measured by liquid scintillation spectroscopy. The amounts of LTB4 and PGE2 were measured in the extracellular medium by radio immunoassay with specific antisera. The effects of inhibitor were measured as percent inhibition of A23187- stimulated AA metabolite release (^14 C release, PGE2 and LTB4 production) (control) which were calculated from the formula: [formula] IC50 's were calculated as described in the HSF-PLA2 assay.

[2] = test system: carrageenan-induced paw edema in rats; assay: Carrageenan-induced paw edema model of inflammation; assay type: in vivo; conditions: 2 hr, rat, read-out: Carrageenan ind. paw edema % Inhib. 2 hr; for inhibition in vivo at 100 mg/kg: 100 mg/Kg po; for inhibition in vivo at 3 mg/kg: 3 mg/Kg ip
[3] = test system: PLA2-induced rat paw edema (PLA2 purified from Naja naja snake venom); assay: PLA2-induced rat paw edema model of inflammation; assay type: in vivo
[4] = test system: adjuvant-induced arthritis in male Lewis rats; assay: Established adjuvant-induced arthritis test; assay type: in vivo, rat; conditions: day 28 minus day 21, vehicle value in parentheses
Method: IV. Adjuvant-induced Arthritis
Male Lewis rats (120-140 g) received 0.1 mg myeobacterium brityricum (0.5% ow/v) heavy mineral oil containing 0.2% digitonin administered in the base of the tail and the resulting arthritis was allowed to develop for 21 days (Coffey and Salvador, 1981). The combinded volumes of both hind paws were measured using a water plethysmograph by immersion of the paws to the level of the lateral malleolus. The animals were divided into drug-treatedand vehicle (control) groups (six rats per group) with approximately equal volumes of both hind paws. On day 21, body weights were recorded and the i.p. or p.o. vehicle and drug were then administered daily for seven days. On day 28, the final day of the experiment, heparinized (0.2 units/100 μl) blood was also collected for measurement of plasma fibrinogen concentrations (Goodwin, 1961). The changes in paw volume and body weight were calculated as paw volume or body weight at day 28 minus paw volume or body weight at day 21. Values are reported as means ± S.E. for n=6. Plasma fibrinogen concentration was quantitated according to Goodwin et al. (1961) and is expressed in mg/dl. Statistical differences between measurement parameters of the drug-treated and control groups were determined using Students's t-test.

Compound: CCCCCCCCn1c2c(c3cc(/C=C/c4ccc(C(=O)O)o4)ccc31)CCCC2 [Example 43, (E)-5-[2-(1,2,3,4-tetrahydro-9-octyl-9H-dibenzo[b,d]pyrrol-6-yl)ethenyl]-2-furancarboxylic acid]
- inhibition at 10 µM ([1]; 10 μM (footnote a), read-out: % Inhib. of HSF-PLA2 (a: % Inhibition at 10 μM)): 90%
- pIC50 [1]: 5.22
- pIC50 (cellular PLA2): 6.30
- inhibition in vivo at 50 mg/kg ([2]; 50 mg/Kg ip): 40%
- inhibition in vivo at 100 mg/kg [2]: 29%
- PLA2-ind. paw edema % Inhib 2 hr ([3]; 50 mg/Kg ip): 60%
- Change of body wt. (vehicle) ([4]; 10 mg/Kg ip daily seven days): 12 g
- Change of paw volume (vehicle) ([4]; 10 mg/Kg ip daily seven days): -0.18 mL
- Change of body wt. (vehicle) ([4]; 100 mg/Kg po daily seven days): 12 g
- Change of paw volume (vehicle) ([4]; 100 mg/Kg po daily seven days): -0.29 mL

Compound: CCCCCCCCn1c2c(c3cc(/C=C/c4ccc(C(=O)O)o4)ccc31)CCCC2(C)C [Example 44, (E)-5-[2-(1,2,3,4-tetrahydro-1,1-dimethyl-9-octyl-9H-dibenzo[b,d]pyrrol-6-yl)ethenyl]-2-furancarboxylic acid]
- pIC50 [1]: 5.60
- inhibition at 5 µM [1]: 71%
- % Inhib. of cellular PLA2 at 5 μM (cellular PLA2): 62%
- pIC50 (cellular PLA2): 5.40
- inhibition in vivo at 10 mg/kg ([2]; 10 mg/Kg ip): 57%
- inhibition in vivo at 100 mg/kg [2]: 36%
- PLA2-ind. paw edema % Inhib 2 hr ([3]; 30 mg/Kg ip): 71%
- PLA2-ind. paw edema % Inhib 2 hr ([3]; 100 mg/Kg po): 27%
- Change of body wt. (vehicle) ([4]; 30 mg/Kg po daily seven days): 5 g
- Change of paw volume (vehicle) ([4]; 30 mg/Kg po daily seven days): 0.68 mL

Compound: CCCCCCCCn1c2c(c3cc(/C=C\c4ccc(C(=O)O)o4)ccc31)CCCC2(C)C [Example 52, (Z)-5-[2-(1,2,3,4-tetrahydro-1,1-dimethyl-9-octyl-9H-dibenzo[b,d]-pyrrol-6-yl)ethenyl]-2-furancarboxylic acid]
- inhibition at 5 µM [1]: 73%
- % Inhib. of cellular PLA2 at 5 μM (cellular PLA2): 66%
- inhibition in vivo at 10 mg/kg ([2]; 10 mg/Kg ip): 50%
- Change of body wt. (vehicle) ([4]; 30 mg/Kg po daily seven days): 13 g
- Change of paw volume (vehicle) ([4]; 30 mg/Kg po daily seven days): 0.66 mL

Compound: CCCCCCCCn1c2c(c3cc(Oc4ccc(C(=O)O)o4)ccc31)CCCC2 [Example 132, 5-[(1,2,3,4-tetrahydro-9-octyl-9H-dibenzo[b,d]pyrrol-6-yl)oxy]-2-furancarboxylic acid]
- pIC50 [1]: 5.40
- inhibition at 5 µM [1]: 79%
- % Inhib. of cellular PLA2 at 5 μM (cellular PLA2): 97%
- pIC50 (cellular PLA2): 6.00
- inhibition in vivo at 3 mg/kg [2]: 45%
- inhibition in vivo at 100 mg/kg [2]: 65%
- PLA2-ind. paw edema % Inhib 2 hr ([3]; 100 mg/Kg po): 34%
- Change of body wt. (vehicle) ([4]; 10 mg/Kg po daily seven days): 13 g
- Change of paw volume (vehicle) ([4]; 10 mg/Kg po daily seven days): 0.48 mL

Compound: CCCCCCCCn1c2c(c3cc(Cc4ccc(C(=O)O)o4)ccc31)CCCC2 [Example 160, 5-[(1,2,3,4-tetrahydro-9-octyl-9H-dibenzo[b,d]pyrrol-6-yl)methyl]-2-furancarboxylic acid]
- inhibition at 5 µM [1]: 49%
- % Inhib. of cellular PLA2 at 5 μM (cellular PLA2): 94%
- inhibition in vivo at 3 mg/kg [2]: 46%
- inhibition in vivo at 10 mg/kg ([2]; 10 mg/Kg po): 50%
- PLA2-ind. paw edema % Inhib 2 hr ([3]; 30 mg/Kg ip): 49%
- Change of body wt. (vehicle) ([4]; 30 mg/Kg po daily seven days): 4 g
- Change of paw volume (vehicle) ([4]; 30 mg/Kg po daily seven days): 0.47 mL
